Data reported in patent US11919902B2, “Aryl-bipyridine amine derivatives as phosphatidylinositol phosphate kinase inhibitors” (HiberCell, Inc., priority 2017, dated 2024).
pIC50: −log10 of the molar value.

Target: T1, PIP4K2A (full length protein, SignalChem) (Homo sapiens, UniProt P48426)
T1 construct: 4 nM PIP4K2A (full length protein, SignalChem); purchased SignalChem
T1 sequence (P48426 1-406): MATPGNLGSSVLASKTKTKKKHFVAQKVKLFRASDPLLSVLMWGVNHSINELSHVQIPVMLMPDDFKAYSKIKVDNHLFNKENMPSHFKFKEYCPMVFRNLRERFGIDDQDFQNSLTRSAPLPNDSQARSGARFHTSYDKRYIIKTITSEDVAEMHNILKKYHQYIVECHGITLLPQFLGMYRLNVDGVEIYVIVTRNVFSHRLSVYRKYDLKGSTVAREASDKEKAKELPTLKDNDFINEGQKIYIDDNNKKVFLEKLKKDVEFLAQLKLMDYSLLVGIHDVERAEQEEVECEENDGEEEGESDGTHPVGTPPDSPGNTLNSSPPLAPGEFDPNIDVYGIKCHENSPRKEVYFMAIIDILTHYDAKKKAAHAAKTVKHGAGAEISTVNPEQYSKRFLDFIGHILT
Test: Kinase Assay PIP4K2 A (Sprint); ADP-Glo biochemical assay
Conditions: Table 2; compounds listed under IC50 range headings
Description: Dilution series of the compounds were prepared in DMSO at 100 times the final assay concentration (n1=n0/3 in 10 points). The compounds were further diluted to three times the assay concentration in assay buffer (20 mM MOPS pH 7.2, 25 mM magnesium chloride, 0.005% Tween 20). 6 μL of the diluted compounds were added to a 384 well assay plate followed by 9 μL of a mix consisting of 4 nM PIP4K2A (full length protein, SignalChem) and 100 μM PI(5)P diC8 (Tebu-Bio). Enzyme and compounds were pre-incubated at room temperature for 15 min.
Then 3 μL of a solution containing 60 μM ATP (Promega) in assay buffer was added to the wells containing compound and enzyme and mixing was performed by pipetting several times. The reaction was incubated at room temperature for 1 h. Then 18 μL of ADP-Glo™ Reagent (Promega) was added to stop the kinase reaction and deplete the unconsumed ATP, mixing was performed by pipetting several times. The plate was incubated at room temperature for 40 min before addition of 36 μL of Kinase Detection Reagent (Promega) to convert ADP to ATP and introduce luciferase and luciferin to detect ATP. The reaction was incubated at room temperature for 40 min before the luminescence was measured in a in a Victor 3V 1420 multilabel counter (Perkin Elmer).
Percent inhibition of the compounds as compared to dimethyl sulfoxide treated control samples was calculated. Compound concentration versus percent inhibition were fitted to generate IC50 values.

Structure (SMILES)	pIC50
CN(C)C(=O)c1ccc(-c2cncc(-c3ccnc(C(C)(C)O)c3)c2)cc1 [Example 8, 4-(2′-(2-hydroxypropan-2-yl)-[3,4′-bipyridin]-5-yl)-N,N-dimethylbenzamide]	5.60 to 6.00
CN(C)C(=O)c1ccc(-c2cc(-c3ccncc3)cnc2N)cc1 [Example 16, 4-(6-amino-[3,4′-bipyridin]-5-yl)-N,N-dimethylbenzamide]	> 5.30
CN(C)C(=O)c1ccc(-c2cc(-c3ccc(=O)[nH]c3)cnc2N)cc1 [Example 17, 4-(6-amino-6′-oxo-1′,6′-dihydro-[3,3′-bipyridin]-5-yl)-N,N-dimethylbenzamide]	> 5.30
CN(C)C(=O)c1ccc(-c2cc(C3=CCOCC3)cnc2N)cc1 [Example 18, 4-(2-amino-5-(3,6-dihydro-2H-pyran-4-yl)pyridin-3-yl)-N,N-dimethylbenzamide]	> 5.30
CN(C)C(=O)c1ccc(-c2cc(-c3ccnc(C(C)(C)O)c3)cnc2N)nc1 [Example 101, 2′-Amino-2″-(2-hydroxypropan-2-yl)-N,N-dimethyl-[2,3′:5′,4″-terpyridine]-5-carboxamide]	5.60 to 6.00
CN(C)C(=O)c1ccc(-c2cc(-c3ccnc(C(C)(C)C#N)c3)cnc2N)nc1 [Example 102, 2′-Amino-2″-(2-cyanopropan-2-yl)-N,N-dimethyl-[2,3′:5′,4″-terpyridine]-5-carboxamide]	5.60 to 6.00
CN(C)C(=O)c1ccc(-c2cc(-c3ccnc4c3ccn4C)cnc2N)nc1 [Example 105, 2′-amino-N,N-dimethyl-5′-(1-methyl-1H-pyrrolo[2,3-b]pyridin-4-yl)-[2,3′-bipyridine]-5-carboxamide]	6.00 to 7.00
CN(C)C(=O)c1ccc(-c2cc(-c3ccnc(C(C)(C)C)c3)cnc2N)nc1 [Example 106, 2′-amino-2″-(tert-butyl)-N,N-dimethyl-[2,3′:5′,4″-terpyridine]-5-carboxamide]	5.60 to 6.00
CN(C)C(=O)c1ccc(-c2cc(-c3ccnc(C#N)c3)cnc2N)nc1 [Example 107, 2′-amino-2″-cyano-N,N-dimethyl-[2,3′:5′,4″-terpyridine]-5-carboxamide]	5.60 to 6.00
CN(C)C(=O)c1ccc(-c2cc(-c3ccnnc3)cnc2N)nc1 [Example 108, 2′-amino-N,N-dimethyl-5′-(pyridazin-4-yl)-[2,3′-bipyridine]-5-carboxamide]	5.30 to 5.60
CN(C)C(=O)c1ccc(-c2cc(-c3ccnc4ccncc34)cnc2N)nc1 [Example 112, 2′-amino-N,N-dimethyl-5′-(1,6-naphthyridin-4-yl)-[2,3′-bipyridine]-5-carboxamide]	5.60 to 6.00
CN(C)C(=O)c1ccc(-c2cc(-c3cccnc3)cnc2N)nc1 [Example 119, 2′-amino-N,N-dimethyl-[2,3′:5′,3″-terpyridine]-5-carboxamide]	> 5.30
Cn1cc(-c2cncc(-c3ccc(N4CCCC4=O)cc3)c2)c2cc(C(C)(C)O)cnc21 [Example 154, 1-(4-(5-(5-(2-hydroxypropan-2-yl)-1-methyl-1H-pyrrolo[2,3-b]pyridin-3-yl)pyridin-3-yl)phenyl)pyrrolidin-2-one]	> 5.30
COC(C)(C)c1cnc2c(c1)c(-c1cncc(-c3ccc(N4CCCC4=O)cc3)c1)cn2C [Example 155, 1-(4-(5-(5-(2-methoxypropan-2-yl)-1-methyl-1H-pyrrolo[2,3-b]pyridin-3-yl)pyridin-3-yl)phenyl)pyrrolidin-2-one]	> 5.30
COc1ncc(-c2cncc(-c3ccc(N4CCCC4=O)cc3)c2)c2cnn(C)c12 [Example 156, 1-(4-(5-(7-methoxy-1-methyl-1H-pyrazolo[3,4-c]pyridin-4-yl)pyridin-3-yl)phenyl)pyrrolidin-2-one]	> 5.30
CN(C)C/C=C/C(=O)Nc1ccc(C(=O)NCc2cc(-c3cnc(N)c(-c4ccc(C(=O)N(C)C)cn4)c3)ccn2)cc1 [Example 189, (E)-2′-amino-2″-((4-(4-(dimethylamino)but-2-enamido)benzamido)methyl)-N,N-dimethyl-[2,3′:5′,4″-terpyridine]-5-carboxamide]	5.60 to 6.00
CN(C)C/C=C/C(=O)Nc1cccc(C(=O)NCc2cc(-c3cnc(N)c(-c4ccc(C(=O)N(C)C)cn4)c3)ccn2)c1 [Example 192, (E)-2′-amino-2″-((3-(4-(dimethylamino)but-2-enamido)benzamido)methyl)-N,N-dimethyl-[2,3′:5′,4″-terpyridine]-5-carboxamide]	5.60 to 6.00

Continued, values first:

pIC50	Structure (SMILES)
6.00 to 7.00	CN(C)C(=O)c1ccc(-c2cncc(-c3cncc(-c4ccnc5[nH]ccc45)c3)c2)cc1 [Example 3, 4-(5′-(H-pyrrolo[2,3-b]pyridin-4-yl)-[3,3′-bipyridin]-5-yl)-N,N-dimethylbenzamide]
6.00 to 7.00	CN(C)C(=O)c1ccc(-c2cc(-c3ccncc3)cnc2N)nc1 [Example 19, 2′-amino-N,N-dimethyl-[2,3′:5′,4″-terpyridine]-5-carboxamide]
6.00 to 7.00	Cc1c(-c2ccncc2)cncc1-c1ccc(N2CCCC2=O)cc1 [Example 82, 1-(4-(4-methyl-[3,4′-bipyridin]-5-yl)phenyl)pyrrolidin-2-one]
7.00 to 8.30	Nc1ncc(-c2ccnc3oc(C(=O)NC4COC4)cc23)cc1-c1ccc(N2CCCC2=O)cc1 [Example 93, 4-(6-amino-5-(4-(2-oxopyrrolidin-1-yl)phenyl)pyridin-3-yl)-N-(oxetan-3-yl)furo[2,3-b]pyridine-2-carboxamide]
6.00 to 7.00	COC(=O)c1cc2c(-c3cnc(N)c(-c4ccc(N5CCCC5=O)cc4)c3)ccnc2[nH]1 [Example 94, methyl 4-(6-amino-5-(4-(2-oxopyrrolidin-1-yl)phenyl)pyridin-3-yl)-1H-pyrrolo[2,3-b]pyridine-2-carboxylate]
8.30 to 9.00	Nc1ncc(-c2ccnc3c2CNC3=O)cc1-c1ccc(N2CCCC2=O)cc1 [Example 95, 4-(6-amino-5-(4-(2-oxopyrrolidin-1-yl)phenyl)pyridin-3-yl)-5,6-dihydro-7H-pyrrolo[3,4-b]pyridin-7-one]
6.00 to 7.00	CN(C)C(=O)c1ccc(-c2cc(-c3ccnc4ccc(C#N)cc34)cnc2N)nc1 [Example 100, 2′-Amino-5′-(6-cyanoquinolin-4-yl)-N,N-dimethyl-[2,3′-bipyridine]-5-carboxamide]
6.00 to 7.00	CN(C)C(=O)c1ccc(-c2cc(-c3ccnc(C4(C#N)CC4)c3)cnc2N)nc1 [Example 103, 2′-amino-2″-(1-cyanocyclopropyl)-N,N-dimethyl-[2,3′:5′,4″-terpyridine]-5-carboxamide]
6.00 to 7.00	CN(C)C(=O)c1ccc(-c2cc(-c3ccnc4occc34)cnc2N)nc1 [Example 104, 2′-amino-5′-(furo[2,3-b]pyridin-4-yl)-N,N-dimethyl-[2,3′-bipyridine]-5-carboxamide]
7.00 to 8.30	CN(C)C(=O)c1ccc(-c2cc(-c3ccnc4[nH]ncc34)cnc2N)nc1 [Example 212, 2′-amino-N,N-dimethyl-5′-(2H-pyrazolo[3,4-b]pyridin-4-yl)-[2,3′-bipyridine]-5-carboxamide]
7.00 to 8.30	O=C1CCCN1c1ccc(-c2cncc(-c3c4n(c5ncccc35)CCC4)c2)cc1 [Example 299, 1-(4-(5-(7,8-dihydro-6H-pyrido[3,2-b]pyrrolizin-5-yl)pyridin-3-yl)phenyl)pyrrolidin-2-one]
